From US8258123B2, “C-19 steroids for cosmetic and further uses” (ErlaCos GmbH, priority 2007, dated 2012)
“Also recorded” adds a separate entry of the source.

What was measured:
[1] = test system: forehead skin; conditions: applied to the forehead skin of patients with acne, 1% solution; cited from earlier work
[2] = loaded to solid lipid nanoparticles; cited from earlier work
[3] = test system: androgen receptor (AR); assay: Binding affinity to the androgen receptor against DHT as reference compound
Procedure: The compounds used according to the present invention preferably have a binding affinity to the androgen receptor (AR) higher than DHT; more preferably the binding affinity is high by having affinity specific to AR in a range of IC50≧500 nM, preferably IC50≧100 nM and more preferably IC50≧50 nM, wherein IC50 is defined as the concentration of the compound required to reduce specific binding of a reference compound, 5α-dihydrotestosterone (DHT), by 50%. The IC50-values can be determined by known methods using radioactively labelled DHT as reference compound, for example by a standard dextran-coated charcoal adsorption method as described by Raynaud et al., J. Steroid Biochem. 6, 615-622 (1975), using 1 nM reference concentrations of radiolabeled [^3H]-DHT, or by similar IC50 determination methods described in the literature. Because the concentration of AR in the target cell is very low, typically in the nanomolar range approximately, differences in binding constants to the order contemplated in the present invention are significant.

[4] = test system: 5α-reductase; assay: 5α-reductase inhibition; format: biochemical
Source text: According to the present invention, the use may correspondingly be determined by selecting the C-19 steroid compound having the aforementioned effects or properties (iii) to (vi) alone or in combination. These effects or properties (iii) to (vi) can be measured by correspondingly known methods. For example, 5α-reductase activity can be measured by a method described by Mitamura et al., Analytical Sciences 21, 1241-1244 (2005). The use according to the present invention may be further determined by a suitable administrated amount of the compound, and by an appropriate application condition, such as type of user/patient, or type of target site or organ enabling the aforementioned effects or properties (iii) to (vi) alone or in combination.

[5] = test system: skin over the predilection areas of cellulite; assay: Topical treatment of the skin over the predilection areas of cellulite; format: in vivo
Source text: The border between the two layers is made up of collagen fibres. Strengthening this border by increasing its collagen content by stimulating the fibroblasts to produce more collagen leads to a marked improvement of the appearance of cellulite.

[6] = test system: apocrine sweat glands in the axilla; assay: Topical application to the axilla, body odour; format: in vivo
Source text: (§1) Not only in theory but also in practice the compounds of the present invention and in particular 4-OHT and its related analogous compounds are the ideal anabolic substances. […] This can be deduced from three different topical applications to the skin.
The majority of glands relevant for body odor are situated in the subcutaneous tissue. It is therefore difficult to apply effective substances directly. To this end a substance is preferably included facilitating the penetration into the skin.

[7] = test system: sebaceous glands; assay: Topical application to the face and other acne-prone skin areas; format: in vivo
Source text: as §1

[8] = test system: hair follicles; assay: Topical treatment of body skin areas, hair growth; format: in vivo
Source text: The situation in the body regions other than the scalp however is different. Sometimes hair growing excessively on other parts of the body is a nuisance. They are conventionally removed by depilation or epilation. Hot wax epilation restores the growth of hair in many dorming hair follicles (telogen hair) thereby increasing the frequency and painfulness of hot wax epilation. Pubic and axillary hair is sparse or absent in CAIS. Corresponding cell cultures contain as androgen predominantly testosterone and only traces of DHT. Growth of unwanted hair in the corresponding body regions cannot be prevented by blocking of 5α-reductase. According to the present invention, this is possible by blocking the androgen receptor against DHT. In almost all hair follicles (with the exception of scalp, pubic and axillary hair) specific cells of the dermal papilla are driven by DHT to promote hair growth.

[9] = test system: striae; assay: Topical treatment of striae; format: in vivo; conditions: suitable formulation containing 4-OHT
Source text: Striae have also been treated according to the invention with a suitable formulation containing 4-OHT. […] Whereas striae rubrae are more disturbing on a fair skin striae albae are a considerable problem for dark skin.

[10] = test system: 5α-reductase; assay: Reduction by 5α-reductase
[11] = biological target: T1, aromatase (Homo sapiens, UniProt P11511); assay: Aromatization by aromatase
T1 sequence (P11511 1-503): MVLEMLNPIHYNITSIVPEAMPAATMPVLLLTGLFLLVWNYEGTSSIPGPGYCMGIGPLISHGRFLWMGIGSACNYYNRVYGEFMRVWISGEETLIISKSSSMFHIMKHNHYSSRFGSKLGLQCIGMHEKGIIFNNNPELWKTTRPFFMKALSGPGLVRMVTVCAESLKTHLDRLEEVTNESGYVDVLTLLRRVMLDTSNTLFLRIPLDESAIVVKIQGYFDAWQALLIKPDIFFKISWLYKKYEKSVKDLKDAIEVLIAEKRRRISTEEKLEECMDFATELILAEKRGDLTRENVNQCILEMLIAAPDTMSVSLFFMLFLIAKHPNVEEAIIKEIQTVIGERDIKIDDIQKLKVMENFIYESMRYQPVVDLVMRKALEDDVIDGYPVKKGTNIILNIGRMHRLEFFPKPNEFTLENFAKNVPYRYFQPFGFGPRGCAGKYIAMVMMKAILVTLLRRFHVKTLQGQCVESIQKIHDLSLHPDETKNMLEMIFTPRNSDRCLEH

| SMILES | sebum excretion rate [1] | increase in CPA absorption by the skin [2] | binding affinity to the AR compared with DHT [3] | inhibition of 5α-reductase [4] | adipose tissue / adipocytes ([5]; topical) | topical formulation compared with 4-OHA ([5]; topical formulation, collagen content of the skin) | solidification of the skin ([5]; topical preparation, within four weeks) | concentration of collagen fibres ([5]; topical, skin areas over the buttocks) | androgenic effect after application to the skin ([5]; topical, hair growth or pimples) | effect on body odor of the combination with a penetration enhancer ([6]; combination with dimethyl isosorbide (Arlasolve DMI)) | androgen dependent production of volatile fatty acids responsible for body odour ([6]; topical, axilla) | size and capability of sebaceous glands [7] | type of hair produced by the follicles ([8]; after six months) | growth of body hairs ([8]; body regions other than scalp) | striae rubrae and striae albae [9] | thickness of the skin [9] | 5α-reduction [10] | aromatization [11] |
| --- | --- | --- | --- | --- | --- | --- | --- | --- | --- | --- | --- | --- | --- | --- | --- | --- | --- | --- |
| CC(=O)O[C@]1(C(C)=O)CC[C@H]2[C@@H]3C=C(Cl)C4=CC(=O)[C@@H]5C[C@@H]5[C@]4(C)[C@H]3CC[C@@]21C [Cyproterone acetate, cyproterone acetate] | not able to reduce the sebum excretion rate | 2-3 fold | – | – | – | – | – | – | – | – | – | – | – | – | – | – | – | – |
| C[C@]12CC[C@H]3[C@@H](CCC4=C(O)C(=O)CC[C@@]43C)[C@@H]1CC[C@@H]2O [4-OHT, 4,17β-dihydroxyandrost-4-en-3-one] | – | – | higher affinity to the AR than DHT | able to inhibit this enzyme (probably both isoforms) | marked diminution and shrinkage of the adipocytes; also recorded: shrinkage of adipose tissue | superior than 4-OHA | considerable solidification of the skin | anabolically increases the concentration of collagen fibres | no androgenic effect whatsoever could be observed | Optimal results | immediately prevents the androgen dependent production of volatile fatty acids | reduces size and capability of sebaceous glands | most of the follicles are producing solely vellous hair | grow slower and less dense and in addition thinner and blonder | makes them disappear | increasing thickness of the skin | escapes aromatization or 5α-reduction | escapes aromatization or 5α-reduction |
